These results are taken from patent US8551984B2, “Aminopyrimidines as SYK inhibitors” (Merck Sharp & Dohme Corp., priority 2009, dated 2013).

SMILES strings stand for the structures.

The experiment concerns the target recombinant human SYK (GST-hSYK fusion protein) (Homo sapiens, UniProt P43405). Briefly: biochemical. Particulars: rhSYK Activity (IC50), recombinant human GST-SYK 5 pM, ATP 25 μM, biotinylated substrate peptide 250 nM, HTRF, 10-dose titration.

Description: Homogeneous Time-Resolved Fluorescence (HTRF) Assay for the Recombinant Human SYK Enzyme:

Consider `Cc1cc(Nc2nccc(C(F)(F)F)n2)cc(-c2cnc(CN3CCCC(C(N)=O)C3)s2)c1` (centres unmarked) [Example 88B-10], for which the IC50 is below 100 nM. For the molecule `Cc1cc(Nc2nccc(C(F)(F)F)n2)cc(-c2cnc(CN3CCOC(CCO)C3)s2)c1` (centres unmarked) [Example 88B-11], the IC50 was below 100 nM.

For `COCC1CN(Cc2ncc(-c3cc(C)cc(Nc4nccc(C(F)(F)F)n4)c3)s2)CCO1` (centres unmarked) [Example 88B-13], the IC50 was below 100 nM. `Cc1cc(Nc2nccc(C(F)(F)F)n2)cc(-c2cnc(CN3CCOC(CC(=O)O)C3)s2)c1` (centres unmarked) [Example 88B-14]: the IC50 was below 100 nM. `Cc1cc(Nc2nccc(C(F)(F)F)n2)cc(-c2cnc(CN3CCC(P(=O)(O)O)C3)s2)c1` (centres unmarked) [Example 88B-15]: the half-maximal inhibitory concentration (IC50) was below 100 nM. Regarding `Cc1cc(Nc2nccc(C(F)(F)F)n2)cc(-c2cnc(CN3CC(COP(C)(C)=O)C3)s2)c1` [Example 88B-16], the IC50 was below 100 nM. Regarding `Cc1cc(Nc2nccc(C(F)(F)F)n2)cc(-c2cnc(CN3CCP(=O)(C(C)C)CC3)s2)c1` [Example 88B-17], the IC50 was below 100 nM.

As to `Cc1cc(Nc2nccc(C(F)(F)F)n2)cc(-c2cnc(CO)s2)c1` [Example 89, [5-(3-methyl-5-{[4-(trifluoromethyl)pyrimidin-2-yl]amino}phenyl)-1,3-thiazol-2-yl]methanol], the IC50 is below 100 nM. In the case of `Cc1cc(Nc2nccc(C(F)(F)F)n2)cc(-c2cnc(CBr)s2)c1` [Example 90, N-{3-[2-(bromomethyl)-1,3-thiazol-5-yl]-5-methylphenyl}-4-(trifluoromethyl)pyrimidin-2-amine] it was below 100 nM; in that of `CCOC(=O)C1(Cc2ncc(-c3cc(C)cc(Nc4nccc(C(F)(F)F)n4)c3)s2)CCNC1=O` (centres unmarked) [Example 91, Ethyl 3-{[5-(3-methyl-5-{[4-(trifluoromethyl)pyrimidin-2-yl]amino}phenyl)-1,3-thiazol-2-yl]-methyl}-2-oxopyrrolidine-3-carboxylate], below 100 nM.

On to `Cc1cc(Nc2nccc(C(F)(F)F)n2)cc(-c2cnc(CC3(C(=O)O)CCNC3=O)s2)c1` (centres unmarked) [Example 92, 3-{[5-(3-methyl-5-{[4-(trifluoromethyl)pyrimidin-2-yl]amino}phenyl)-1,3-thiazol-2-yl]methyl}-2-oxopyrrolidine-3-carboxylic acid], for which the IC50 was below 100 nM. With `Cc1cc(Nc2nccc(C(F)(F)F)n2)cc(-c2cnc(CN3CCOC3=O)s2)c1` [Example 92-1], the IC50 was below 100 nM. As for `Cc1cc(Nc2nccc(C(F)(F)F)n2)cc(-c2cnc(CN3CCCC3=O)s2)c1` [Example 92-2], the IC50 was below 100 nM. For the molecule `Cc1cc(Nc2nccc(C(F)(F)F)n2)cc(-c2cnc(CN3CCN(C)C3=O)s2)c1` [Example 92-3], the 50% inhibitory concentration (IC50) is below 100 nM. Consider `Cc1cc(Nc2nccc(OC3CNC3)n2)cc(-c2cnc(C3(O)CCC3)s2)c1` [Example 93, 1-[5-(3-{[4-(azetidin-3-yloxy)pyrimidin-2-yl]amino}-5-methylphenyl)-1,3-thiazol-2-yl]cyclobutanol], for which the IC50 is below 100 nM.

In the case of `Cc1cc(Nc2nccc(OC3COC3)n2)cc(-c2cnc(C3(O)CCC3)s2)c1` [Example 94, 1-[5-(3-methyl-5-{[4-(oxetan-3-yloxy)pyrimidin-2-yl]amino}phenyl)-1,3-thiazol-2-yl]cyclobutanol], the IC50 was below 100 nM. In the case of `Cc1cc(Nc2nccc(OCc3ccncc3)n2)cc(-c2cnc(C3(O)CCC3)s2)c1` [Example 94A-1], the IC50 is below 100 nM. Next, `Cc1cc(Nc2nccc(OCc3cccnc3)n2)cc(-c2cnc(C3(O)CCC3)s2)c1` [Example 94A-2]: below 100 nM; `Cc1cc(Nc2nccc(OCc3ccccn3)n2)cc(-c2cnc(C3(O)CCC3)s2)c1` [Example 94A-3]: below 100 nM; `Cc1cc(Nc2nccc(OCC3COCCO3)n2)cc(-c2cnc(C3(O)CCC3)s2)c1` (centres unmarked) [Example 94A-4]: below 100 nM. Next, `Cc1cc(Nc2nccc(OCCC3CCOCC3)n2)cc(-c2cnc(C3(O)CCC3)s2)c1` [Example 94A-5]: below 100 nM; `Cc1cc(Nc2ncc(F)c(OC3CCOC3)n2)cc(-c2cnc(C3(O)CCC3)s2)c1` (centres unmarked) [Example 94A-6]: 100 to 1000 nM. For `Cc1cc(Nc2nccc(OCC3CCOCC3)n2)cc(-c2cnc(C3(O)CCC3)s2)c1` [Example 94A-7], the IC50 is below 100 nM.

On to `Cc1cc(Nc2nccc(O[C@@H]3CCOC3)n2)cc(-c2cnc(C3(O)CCC3)s2)c1` [Example 94A-8], for which the IC50 is below 100 nM. Regarding `Cc1cc(Nc2nccc(OCCOCc3ccccc3)n2)cc(-c2cnc(C3(O)CCC3)s2)c1` [Example 94A-9], the IC50 was in the range of 100 to 1000 nM. Regarding `Cc1cc(Nc2nccc(O[C@H]3CCOC3)n2)cc(-c2cnc(C3(O)CCC3)s2)c1` [Example 94A-10], the IC50 is below 100 nM. With `Cc1cc(Nc2nccc(OCCCCOCc3ccccc3)n2)cc(-c2cnc(C3(O)CCC3)s2)c1` [Example 94A-11], the IC50 is 100 to 1000 nM. Regarding `COCCCOc1ccnc(Nc2cc(C)cc(-c3cnc(C4(O)CCC4)s3)c2)n1` [Example 94A-12], the IC50 was below 100 nM. Consider `Cc1cc(Nc2nccc(OCCCOCc3ccccc3)n2)cc(-c2cnc(C3(O)CCC3)s2)c1` [Example 94A-13], for which the IC50 was in the range of 100 to 1000 nM.

With `COCCOc1ccnc(Nc2cc(C)cc(-c3cnc(C4(O)CCC4)s3)c2)n1` [Example 94A-14], the IC50 is below 100 nM. As for `Cc1cc(Nc2nccc(OCC3CCOC3)n2)cc(-c2cnc(C3(O)CCC3)s2)c1` (centres unmarked) [Example 94A-15], the IC50 is below 100 nM.

For `CCOC(=O)C1CCC(Oc2ccnc(Nc3cc(C)cc(-c4cnc(C5(O)CCC5)s4)c3)n2)CC1` (centres unmarked) [Example 94A-16, ethyl 4-{[2-({3-[2-(1-hydroxycyclobutyl)-1,3-thiazol-5-yl]-5-methylphenyl}-amino)pyrimidin-4-yl]oxy}cyclohexanecarboxylate], the IC50 lay in the range of 100 to 1000 nM. As to `Cc1cc(Nc2nccc(OC3CCOCC3)n2)cc(-c2cnc(C3(O)CCC3)s2)c1` [Example 94A-17], the IC50 is below 100 nM. In the case of `Cc1cc(Nc2nccc(OC3CCC(N)CC3)n2)cc(-c2cnc(C3(O)CCC3)s2)c1` (centres unmarked) [Example 94A-18] it was below 100 nM. Regarding `Cc1cc(Nc2nccc(OC3CCNC(C)CC3)n2)cc(-c2cnc(C3(O)CCC3)s2)c1` (centres unmarked) [Example 94A-20], the IC50 was below 100 nM. In the case of `Cc1cc(Nc2nccc(OC3CCCNCC3)n2)cc(-c2cnc(C3(O)CCC3)s2)c1` (centres unmarked) [Example 94A-21] it was below 100 nM. For `Cc1cc(Nc2nccc(O[C@H](C)C(=O)O)n2)cc(-c2cnc(C3(O)CCC3)s2)c1` [Example 94A-22], the IC50 was in the range of 100 to 1000 nM. Consider `CNCCOc1ccnc(Nc2cc(C)cc(-c3cnc(C4(O)CCC4)s3)c2)n1` [Example 94A-23], for which the IC50 is 100 to 1000 nM. Turning to `Cc1cc(Nc2nccc(OCC3CCNCC3)n2)cc(-c2cnc(C3(O)CCC3)s2)c1` [Example 94A-24], the IC50 lay within 100 to 1000 nM. As to `Cc1cc(Nc2nccc(OC(C)(C)C(=O)OC(C)(C)C)n2)cc(-c2cnc(C3(O)CCC3)s2)c1` [Example 94A-25, tert-butyl 2-{[2-({3-[2-(1-hydroxycyclobutyl)-1,3-thiazol-5-yl]-5-methylphenyl}amino)-pyrimidin-4-yl]oxy}-2-methylpropanoate], the IC50 lay within 100 to 1000 nM.

In the case of `Cc1cc(Nc2nccc(OC3CCCNC3)n2)cc(-c2cnc(C3(O)CCC3)s2)c1` (centres unmarked) [Example 94A-26], the IC50 is below 100 nM. Next, `Cc1cc(Nc2nccc(OCC3CNC3)n2)cc(-c2cnc(C3(O)CCC3)s2)c1` [Example 94A-27]: below 100 nM. Regarding `Cc1cc(Nc2nccc(OC3CCOC3)n2)cc(-c2cnc(C3(O)CCC3)s2)c1` (centres unmarked) [Example 94A-29], the IC50 was below 100 nM. Next, `Cc1cc(Nc2nccc(OC3CCC3)n2)cc(-c2cnc(C3(O)CCC3)s2)c1` [Example 94A-30]: below 100 nM; `Cc1cc(Nc2nccc(OC3CCCC3)n2)cc(-c2cnc(C3(O)CCC3)s2)c1` [Example 94A-31]: below 100 nM; `Cc1cc(Nc2nccc(OC3CCCCC3)n2)cc(-c2cnc(C3(O)CCC3)s2)c1` [Example 94A-32]: 100 to 1000 nM. In the case of `Cc1cc(Nc2nccc(OC3CCNCC3)n2)cc(-c2cnc(C3(O)CCC3)s2)c1` [Example 94A-33] it was below 100 nM; in that of `Cc1cc(Nc2nccc(OCc3ccccc3)n2)cc(-c2cnc(C(C)(O)C(F)(F)F)s2)c1` (centres unmarked) [Example 94B-1, 2-[5-(3-{[4-(benzyloxy)pyrimidin-2-yl]-amino}-5-methylphenyl)-1,3-thiazol-2-yl]-1,1,1-trifluoropropan-2-ol], below 100 nM; in that of `Cc1cc(Nc2nccc(OC3CCC(C)(O)CC3)n2)cc(-c2cnc(C(C)(O)C(F)(F)F)s2)c1` (centres unmarked) [Example 94B-2], below 100 nM. `Cc1cc(Nc2nccc(OC3CCC(OCc4ccccc4)CC3)n2)cc(-c2cnc(C(C)(O)C(F)(F)F)s2)c1` (centres unmarked) [Example 94B-3, 2-(5-{3-[(4-{[4-(benzyloxy)cyclohexyl]oxy}pyrimidin-2-yl)amino]-5-methylphenyl}-1,3-thiazol-2-yl)-1,1,1-trifluoropropan-2-ol]: the IC50 was 100 to 1000 nM. Take `Cc1cc(Nc2nccc(OC3CCNCC3F)n2)cc(-c2cnc(C(C)(O)C(F)(F)F)s2)c1` (centres unmarked) [Example 94B-4]: the IC50 is below 100 nM. In the case of `Cc1cc(Nc2nccc(OC3CCNCC3)n2)cc(-c2cnc(C(C)(O)C(F)(F)F)s2)c1` (centres unmarked) [Example 94B-6], the IC50 was below 100 nM.

On to `Cc1cc(Nc2nccc(O[C@H]3CCNC3)n2)cc(-c2cnc(C(C)(O)C(F)(F)F)s2)c1` (some centres unmarked) [Example 94B-9], for which the IC50 was below 100 nM.

On to `CC(O)c1ncc(-c2cccc(Nc3nccc(OC4CCNCC4)n3)c2)s1` (centres unmarked) [Example 94B-10], for which the IC50 is below 100 nM. On to `Cc1cc(Nc2nccc(N3CCCC(=O)NC3)n2)cc(-c2cnc(C3(O)CCC3)s2)c1` [Example 94C-1], for which the IC50 is below 100 nM.

Consider `Cc1cc(Nc2nccc(OC(C)(C)C(=O)O)n2)cc(-c2cnc(C3(O)CCC3)s2)c1` [Example 95, 2-{[2-({3-[2-(1-hydroxycyclobutyl)-1,3-thiazol-5-yl]-5-methylphenyl}amino)pyrimidin-4-yl]oxy}-2-methylpropanoic acid], for which the IC50 lay within 100 to 1000 nM.

Broadly, the IC50 is the concentration needed to halve the response being measured.
